Here are results for one substance from patent US20250186597A1, “TARGETED IMMUNE ACTIVATION WITH IL-18 IMMUNOCYTOKINES” (BRIGHT PEAK THERAPEUTICS AG, priority 2023, published 2025).

The term EC50 denotes the concentration needed to bring the measured effect to its halfway point. By IC50 is commonly meant the concentration that inhibits the measured activity by half.

Holding throughout (type): cell-based, human
Experiment [1] relates to parental PD-1negative NK-92 cells. Kind of experiment: IFN gamma secretion assay in parental PD-1 negative NK-92 cells (Example 17). To be noted: IFNγ secretion. The protocol: To show selectivity of the anti-PD1-IL18 immunocytokine (IC) for PD-1 positive cells, the NK-92 cell line was used to generate a PD-1 expressing cell line and furthermore, to measure IFN[…] release upon incubation with IL-18 variants and ICs.
On the day of experiment, parental PD-1negative and PD-1positive transduced cells were harvested and washed with PBS 1× and resuspended in medium (w/o IL-2) containing 1 ng/ml of recombinant human Interleukin-12 (SinoBiologicals, Cat #CT011-H08H). After counting, cells were seeded at 100 000 cells/well in a 384 well culture plate and incubated at 37° C./5% CO2. When indicated, cells were preincubated with anti-PD-1 antibody LZM-009 at 17 uM during 30 min at 37° C. […] The lowest concentration assessed was 0.8 fM.
After 16-20 h incubation at 37° C./5% CO2, 5 μl of supernatant were carefully transferred to a 384 microwell OptiPlate (Perkin Elmer; Cat #6007270) and Interferon-gamma (IFNγ) levels were measured using the Human IFNγ AlphaLISA Assay Kit (Perkin Elmer, Cat #AL217C). […] AlphaLISA signal was then measured on an Enspire plate reader (Perkin Elmer) using 680 and 615 nm as excitation and emission wavelengths respectively. Half maximal effective concentration (EC50) was calculated based on a variable slope, four parameter analysis using GraphPad PRISM software.

For the next experiment, the system named is NK92 cells. Nature of the experiment: Cellular IL-18 Binding Protein resistance assay in NK92 cells (Example 13). To be noted: IL-18BP-mediated inhibition of IFNγ secretion, IL-18 analyte 1 nM. The protocol: The NK cell line NK-92 derived from a patient with lymphoma (ATCC, Cat #CR^L-2407) was cultured in αMEM medium supplemented with 20% FCS-Glutamax, 25 μM B-mercaptoethanol, and 100 IU/ml of recombinant Human Interleukin-2 (IL-2). On the day of experiment, cells were harvested and washed with αMEM medium without IL-2. After counting, cells were seeded at 100 000 cells/well in a 384 well titer plate and incubated at 37° C./5% CO2. Sixteen 2-fold serial dilutions of Fc fused human IL-18 binding protein isoform a (IL-18BPa; R&D systems, Cat #119-BP) were prepared in αMEM medium—1 ng/ml IL-12 containing 2 nM of each IL-18 variants and were added to the NK-92 cells. Final IL-18 analytes concentration was 1 nM and final IL-18BPa concentrations ranged from to 566 nM down to 17 pM.
After 16-20 h incubation at 37° C./5% CO2, 5 μl of supernatant were carefully transferred to a 384 microwells OPTIplate (Perkin Elmer; Cat #6007270) and Interferon-gamma (IFNγ) levels measured using the Human IFNγ AlphaLISA Assay Kit (Perkin Elmer, Cat #AL217C). […] AlphaLisa signal was then measured on an Enspire plate reader (Perkin Elmer) using 680 and 615 nm as excitation and emission wavelengths respectively. Half maximal inhibitory concentration (IC50) was calculated based on a variable slope, four parameter analysis using GraphPad PRISM software.

Experiment [2] relates to parental PD-1negative NK-92 cells. Nature of the experiment: IL-18BP mediated inhibition of IFN gamma secretion in parental PD-1 negative NK-92 cells (Example 18). To be noted: IL-18BP-mediated inhibition of IFNγ secretion, IL-18 analyte 1 nM. The protocol:
To characterize the resistance of anti-PD1-IL18 immunocytokines (IC) on PD-1 positive cells, the NK-92 cell line was used to generate a PD-1 expressing cell line and furthermore, to measure the inhibition of IFN[…] release upon incubation with IL-18 variants and ICs in the presence of increasing quantities of human IL-18BP.
On the day of experiment, parental PD-1^negative and PD-1^positive transduced cells were harvested and washed with PBS 1× and resuspended in medium (w/o IL-2) containing 1 ng/ml of recombinant human Interleukin-12 (SinoBiologicals, Cat #CT011-H08H). After counting, cells were seeded at 100 000 cells/well in a 384 well culture plate and incubated at 37° C./5% CO2. When indicated, cells were preincubated with anti-PD-1 antibody LZM-009 at 17 uM during 30 min at 37° C. […]
After 16-20 h incubation at 37° C./5% CO2, 5 μl of supernatant were carefully transferred to a 384 microwell OptiIPlate (Perkin Elmer; Cat #6007270) and Interferon-gamma (IFNγ) levels measured using the Human IFNγ AlphaLISA Assay Kit (Perkin Elmer, Cat #AL217C). […] AlphaLISA signal was then measured on an Enspire plate reader (Perkin Elmer) using 680 and 615 nm as excitation and emission wavelengths respectively. Half maximal inhibitory concentration (IC50) was calculated based on a variable slope, four parameter analysis using GraphPad PRISM software.

For “SEQ ID NO: 1: Native sequence of human IL-18 (bioactive form) [reference compound]”, the EC50 in experiment [1] amounted to 0.158 nM. Besides, the IC50 amounted to 0.781 nM in the experiment with NK92 cells and 2.97 nM in experiment [2].
